Assay results published in patent publication US4699928A, “Fluoroallylamine derivatives” (Merrell Dow Pharmaceuticals Inc., priority 1986, dated 1987).

Columns and labels:
MAO-A and MAO-B = settings: cited from earlier work
MAO-B versus MAO-A = test: Selectivity of inhibition of MAO-B versus MAO-A in vitro (14C phenethylamine / 14C 5-hydroxytryptamine); assay type: biochemical; settings: rat, brain mitochondria
Description: Mitochondria are prepared from rat brain by homogenation in phosphate buffer (0.1 M, pH 7.2) followed by differential centrifugation. The mitochondria are suspended in the same buffer, the test compound is added at the desired concentration, and the system is incubated. At different time intervals, aliquots are taken and MAO activity is measured using ^14 C p-tyramine (a mixed substrate) as the substrate (See A. Christmas et al., supra).
(C) The selectivity of a compound of Formula I with respect to inhibition of MAO-A and MAO-B can be determined by repeating the procedure of Part B and measuring the MAO activity using ^14 C 5-hydroxytryptamine (a preferred substrate for MAO-A) and ^14 C phenethylamine (a preferred substrate for MAO-B) as the substrate.

MAO = test: Inhibition of MAO in vitro, partially purified rat brain mitochondria, 14C p-tyramine substrate; assay type: biochemical; settings: tested as hydrochloride salt
Excerpt: Inhibition of MAO--In vitro testing
(A) The ability of a compound of Formula I to inhibit MAO can be determined in vitro by the method of A. Christmas et al., Br. J. Pharmacol., 45, 490 (1972) in partially purified mitochondria from rat brain using ^14 C p-tyramine as the substrate. The MAO inhibitory activity of a compound is expressed as the "IC50 " value, which is the molar concentration required to produce 50% inhibition of the enzyme.

[1] = test system: heart rate response to p-tyramine; test: Cheese effect: potentiation of response to intravenous p-tyramine, pithed rats; assay type: in vivo, male Sprague-Dawley rats; settings: p-tyramine i.v.
Description: (§1) The following test procedures can be employed to assess the potential of a compound of Formula I for producing the "cheese effect": […]
(§2) Eighteen hours later the animals are anaesthetized with pentobarbitone (60 mg/kg i.p.), in some instances pithed, and in all cases set up for recording heart rate and blood pressure by standard techniques.

[2] = low dosages where preferential inhibition of MAO-B occurs; cited from earlier work
depression = settings: in vivo; cited from earlier work
[3] = test system: heart rate response to p-tyramine; test: Cheese effect: potentiation of response to intraduodenal p-tyramine, anaesthetized rats; assay type: in vivo, male Sprague-Dawley rats; settings: p-tyramine i.d.
Description: as §1, §2

MAO-A = settings: cited from earlier work
MAO-B = settings: cited from earlier work

N[C@@H]1C[C@H]1c1ccccc1 (relative stereo) [tranylcypromine]
preference in action upon MAO (MAO-A and MAO-B): not preferential

NC/C(=C\F)CSc1ccccc1 [(E)-2-thiophenoxymethyl-3-fluoroallylamine]
Ratio B:A (inhibitory activity against MAO-B versus MAO-A) (MAO-B versus MAO-A): 100

NC/C(=C/F)CSc1ccc(F)cc1 [(Z)-2-(4'-fluorothiophenoxy) methyl-3-fluoroallylamine]
Ratio B:A (inhibitory activity against MAO-B versus MAO-A) (MAO-B versus MAO-A): 100

NC/C(=C/F)COc1ccccc1 [(Z)-2-phenoxymethyl-3-fluoroallylamine]
IC50 (MAO): 1000 nM

NC/C(=C/F)CSc1ccccc1 [(Z)-2-thiophenoxymethyl-3-fluoroallylamine]
Ratio B:A (inhibitory activity against MAO-B versus MAO-A) (MAO-B versus MAO-A): 1,000
IC50 (MAO): 1000 nM

C#CCN(C)[C@H](C)Cc1ccccc1 [L-deprenyl, reference compound]
Potentiation of heart rate response to p-tyramine ([1]; 0.1 mg/kg): 1.3 fold
Potentiation of heart rate response to p-tyramine ([1]; 1.0 mg/kg): 2.2 fold
cheese effect [2]: not observed
clinical antidepressant effect (depression): clinically effective antidepressant agents
Potentiation of heart rate response to p-tyramine ([3]; 0.1 mg/kg, in words): no effect
Potentiation of heart rate response to p-tyramine ([3]; 1.0 mg/kg): 2.1 fold

CNC/C(=C/F)COc1ccc(Cl)cc1Cl [N-methyl (Z)-2-(2',4'-dichlorophenoxy)methyl-3-fluoroallylamine]
Ratio B:A (inhibitory activity against MAO-B versus MAO-A) (MAO-B versus MAO-A): 100

C#CCN(C)CCCOc1ccc(Cl)cc1Cl [clorgyline, reference compound]
Potentiation of heart rate response to p-tyramine ([1]; 0.1 mg/kg): 5.2 fold
preferential inhibition of MAO-A (MAO-A): MAO-A is preferentially inhibited
IC50 (MAO): 10 nM
clinical antidepressant effect (depression): clinically effective antidepressant agents
Potentiation of heart rate response to p-tyramine ([3]; 0.1 mg/kg): 5.6 fold

Cc1cc(C(=O)NNCc2ccccc2)no1 [isocarboxazid]
preference in action upon MAO (MAO-A and MAO-B): not preferential

C#CCN(C)Cc1ccccc1 [pargyline]
preferential inhibition of MAO-B (MAO-B): MAO-B is preferentially inhibited
IC50 (MAO): 2000 nM
dose-dependence of selectivity (MAO-A and MAO-B; lower versus higher dosages): selective inhibitors at lower dosages, but are not selective inhibitors at higher dosages
clinical antidepressant effect (depression): clinically effective antidepressant agents

NNCCc1ccccc1 [phenelzine]
preference in action upon MAO (MAO-A and MAO-B): not preferential
